Assay results as given in patent publication US20240131032A1, “AN ACTIVITY-GUIDED MAP OF ELECTROPHILE-CYSTEINE INTERACTIONS IN PRIMARY HUMAN IMMUNE CELLS” (The Scripps Research Institute, priority 2019, published 2024).

System: NuRD complex
Assay: Expression-based proteomics (TMT-exp) of compound-treated T cells, NuRD complex
Format: cell-based, human
Conditions: BPK-25 10 μM, 24 h; for decrease in GATAD2B, MBD2, MBD3, and MTA2 (NuRD complex proteins): BPK-21 20 μM, EV-3 10 μM, DMF 50 μM
Procedure: FIG. 7B is a scatter plot representation of protein abundance changes caused by BPK-25 (10 μM, 24 h) in two independent replicate experiments, with decreases in NuRD complex components highlighted in red. FIG. 7C is a heatmap of top proteins with decreased abundance in BPK-25-treated T cells showing that the subset of these proteins in the NuRD complex (asterisks) were largely unaltered by other active compounds and blocked in their degradation by co-treatment with the proteasome inhibitor MG132. […] FIG. 7E is a bar graph […] showing time-dependent reductions in NuRD complex members in human T cells treated with BPK-25 (10 μM). Left, representative western blots. Right, quantification of changes in protein. […] FIG. 7G is a heat map showing the changes in cysteine reactivity for NuRD complex members in human T cells treated with BPK-25 and other active compounds.
Freshly isolated T cells (1.6×10^7 cells, 2×10^6 cells/mL in RPMI media) were treated with compound or DMSO for 24 h, pelleted (600 g, 5 min), and washed with PBS (1×10 mL). The cells were then transferred to an Eppendorf tube in additional PBS (1 mL), pelleted (600 g, 5 min), flash frozen, and kept at −80° C. until further analysis. On the first day of the whole proteome TMT protocol, the cells were thawed on ice and lysed in lysis buffer (150 μL, 1 tablet of Roche complete, mini, EDTA-free Protease Inhibitor Cocktail dissolved in 10 mL of PBS) using a probe sonicator (2×8 pulses). Protein concentration was adjusted to 2.0 mg/mL and the samples (100 μL) were transferred to new Eppendorf tubes (1.5 mL) containing urea (48 mg/tube, final urea concentration: 8 M). DTT (5 μL, 200 mM fresh stock in H2O, final DTT concentration: 10 mM) was then added to the tubes and the samples were incubated at 65° C. for 15 min. Following this incubation, iodoacetamide (5 μL, 400 mM fresh stock in H2O, final IA concentration: 20 mM) was added and the samples were incubated in the dark at 37° C. with shaking for 30 min. Ice-cold MeOH (600 μL), CHCl3 (200 μL), and H2O (500 μL) were then added, the mixture was vortexed and centrifuged (10,000 g, 10 min, 4° C.) to afford a protein disc at the interface of CHCl3 and aqueous layers. The top layer was aspirated without perturbing the disk, additional MeOH (600 μL) was added and the proteins were pelleted (10,000 g, 10 min, 4° C.) and used in the next step or stored at −80° C. overnight.
The resulting protein pellets were resuspended in EPPS buffer (160 μL, 200 mM, pH 8) using a probe sonicator (2×6 pulses). […]
The sample became clear after the overnight digestion. At this point, peptide concentration was determined using microBCA assay (Thermo Scientific) according to manufacturer's instructions. […]

SMILES | decrease in GATAD2B, MBD2, MBD3, and MTA2 (NuRD complex proteins) | reduced abundance of additional NuRD complex members
COC(=O)/C=C/C(=O)OC [DMF, reference compound] | not leading to NuRD complex degradation | 
C=CC(=O)N(Cc1cccc(Cl)n1)c1ccc(C(=O)Nc2ccccc2)nc1 [BPK-25] | > 50% | 25-50%
